Experimental data as given in patent US7282325B2, “Method of preparing pharmaceutical compositions” (Solvay Pharmaceuticals GmbH, priority 2000, dated 2007).

How the values were obtained:
[1] = biological target: T1, carboanhydrase of the subtype Va of mice (mCA Va) (Mus musculus, UniProt P23589); assay: 4-nitrophenylacetate-esterase enzyme activity test, mCA Va used at 120 nM; type: biochemical; settings: mCA Va obtained by biotechnological processes; enzyme concentration 120 nM; read-out: inhibitory action on carboanhydrase of the subtype Va of mice (IC50)
T1 construct: made in house; host or cells: Escherichia coli BL 21 (DE3)
T1 sequence (P23589 30-299): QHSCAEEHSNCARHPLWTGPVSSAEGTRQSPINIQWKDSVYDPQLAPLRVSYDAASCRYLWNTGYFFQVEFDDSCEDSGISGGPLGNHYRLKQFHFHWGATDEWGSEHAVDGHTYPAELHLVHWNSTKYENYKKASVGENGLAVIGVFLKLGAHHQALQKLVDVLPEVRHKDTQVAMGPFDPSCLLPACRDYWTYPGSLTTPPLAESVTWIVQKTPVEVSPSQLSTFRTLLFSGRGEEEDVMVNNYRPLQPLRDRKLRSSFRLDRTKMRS
Experimental: In a departure from the test procedure described by Scozzafava et al, in this case the enzyme mCA Va was used in a concentration of 120 nM. The mCA Va was obtained in known manner by the method described by H. R. Heck et al., Journal of Biological Chemistry 269 (1994) 24742-24746. To this end, the strain of bacteria Escherichia coli BL 21 (DE3) was used, which was used with a plasmid vector which contained the sequence coding for mCA Va under the control of the T7 promoter which can be induced by isopropyl-β-D-thiogalactopyranoside (IPTG). The bacterial culture was inoculated at 37° C. with stirring into a Luria-Bertani liquid medium containing ampicillin (100 μg/ml) and its growth was monitored by spectrophotometry at 600 nm. Once the bacterial culture had entered the exponential growth phase, IPTG was added in a final concentration of 1 mmol/liter. After 3 hours incubation time (37° C. with stirring), the bacterial culture was centrifuged at 7000×g for 15 minutes, and the supernatant was discarded. The resulting pellet was taken up in 0.1 vol twice-distilled water, and lysozyme (100 μg/ml) was added thereto. The cell lysis took place under ultrasound treatment. […] After each ultrasound pulse, the absorption of the samples was determined at 600 nm, for which each 100 μl of a-sample was diluted with 900 μl twice-distilled water. […]

[2] = tested on: of the 3T3-F442A cell line; assay: Test model according to Hazen et al.: formation of acid-soluble metabolic products of the citric acid cycle; type: cell-based; settings: Adipocyte; rat adipocytes of the 3T3-F442A cell line; read-out: inhibitory effect on the formation of acid-soluble metabolic products of the citric acid cycle (IC50)
Source text: In a second embodiment of the method according to the invention, compounds suitable for the treatment and/or prophylaxis of obesity can be discovered by selecting those compounds which are capable of reducing the amount of metabolic products formed in the citric acid cycle of isolated living mammalian cells or of lipidic secondary products of the citric acid cycle. […] Citrate is preferred. Furthermore, lipidic secondary products of the citric acid cycle, such as free fatty acids, are suitable as metabolic products. Lastly, in this second embodiment, the ability of the test compounds to inhibit the activity of at least one carboanhydrase occurring in mammals is also determined, although the test model used is set up differently from the first embodiment mentioned. The process of the second embodiment is based on the principle of determining in known manner the uptake of radioactivity from substrates of the citric acid cycle labeled with the ^14C-isotope into metabolic intermediate products or secondary products of the citric acid cycle of isolated, living mammalian cells and comparing the results obtained with the results obtained under otherwise identical conditions, but under the influence of CA-inhibitory compounds. Isolated living cells of rodents such as rats, mice or guinea-pigs, or of man, are preferably used in this variant of the method. Human cells are preferred. […]

## CC1(C)O[C@@H]2[C@@H](CO[C@@]3(COS(N)(=O)=O)OC(C)(C)O[C@@H]23)O1 [topiramate]
[1]
  IC50: 74 nM
[2]
  IC50: 348 nM
